The species named for experiment [1] is Cavia porcellus. Briefly: Antibody response to the compound was determined in guinea pigs. The class given is functional.
For experiment [2], the species on record is Cavia porcellus. Briefly: Adjuvant activity was determined by the ability of compound to stimulate delayed hypersensitivity by intradermal injection of 10 ug of ovalbumin after 48 hr in guinea pigs. The class given is functional.

Drawing on ChEMBL document CHEMBL1124282, “Synthesis of fluorescent muramyl dipeptide congeners. 2” (1988), this text covers Antibody response and DTH for four compounds.

As to `CC(=O)N[C@H]1C(O)O[C@H](CO)[C@@H](O)[C@@H]1O[C@H](C)C(=O)N[C@@H](C)C(=O)N[C@H](CCC(=O)O)C(N)=O` (stereo partly drawn) [MURAMYL DIPEPTIDE], in the experiment filed under Cavia porcellus [1], the Antibody response is reported as 82.49. Also, the DTH in the experiment filed under Cavia porcellus [2] came to 10.6.

`COc1ccc2c(c1)Oc1cc(O)ccc1/C2=C1C=C/C(=N/c2nc(O)nc(NCCCC[C@H](NC(=O)CC[C@@H](NC(=O)[C@H](C)NC(=O)[C@@H](C)OC3C(O)C(CO)OC(O)C3NC(C)=O)C(N)=O)C(=O)O)n2)C=C\1C(=O)O` (stereo partly drawn) gave an Antibody response in the experiment filed under Cavia porcellus [1] of 192. Moreover, in the experiment filed under Cavia porcellus [2], the DTH is 20.2.

With `COc1ccc2c(c1)Oc1cc(O)ccc1/C2=C1C=C/C(=N/c2nc(O)nc(NCCCC[C@H](NC(=O)[C@@H](C)OC3C(O)C(CO)OC(O)C3NC(C)=O)C(=O)N[C@H](CCC(=O)O)C(N)=O)n2)C=C\1C(=O)O` (stereo partly drawn), in the experiment filed under Cavia porcellus [1], the Antibody response turned out to be 17.6. Further, in the experiment listed under Cavia porcellus [2], the DTH was 2.9.

`COc1ccc2c(c1)Oc1cc(O)ccc1/C2=C1C=C/C(=N/c2nc(O)nc(OCC3OC(O)C(NC(C)=O)C(O[C@H](C)C(=O)N[C@@H](C)C(=O)N[C@H](CCC(=O)O)C(N)=O)C3O)n2)C=C\1C(=O)O` (stereo partly drawn) displayed an Antibody response in the experiment filed under Cavia porcellus [1] of 123.34. The DTH in the experiment filed under Cavia porcellus [2] is given as 11.5.
